Laboratory results as given in PubChem BioAssay (NCI).
Where “and” joins values, the source holds several entries; their conditions need not be identical. Identical values can stand only once.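 Cells were grown in 96-well plates and exposed to each compound for 48 hours at five concentrations; endpoints were interpolated linearly between bracketing concentrations, or set to the highest concentration if not reached. GI50 marks 50% less growth. Definition used: TGI = concentration required for complete inhibition of growth.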

Columns and labels:
Assay in all cases: inhibition of tumour cell growth, NCI panel, 48 h
LOX IMVI melanoma = test system: LOX IMVI melanoma
U251 CNS = test system: U251 CNS
MOLT-4 leukemia = test system: MOLT-4 leukemia
UACC-257 melanoma = test system: UACC-257 melanoma
UO-31 renal = test system: UO-31 renal
NCI-H226 lung = test system: NCI-H226 lung
M14 melanoma = test system: M14 melanoma
ACHN renal = test system: ACHN renal
T-47D breast = test system: T-47D breast

Row | Structure (SMILES) | TGI (LOX IMVI melanoma) | TGI (U251 CNS) | TGI (MOLT-4 leukemia) | TGI (UACC-257 melanoma) | TGI (UO-31 renal) | TGI (NCI-H226 lung) | TGI (M14 melanoma) | TGI (ACHN renal) | GI50 (U251 CNS) | GI50 (T-47D breast) | TGI (T-47D breast) | GI50 (M14 melanoma) | GI50 (MOLT-4 leukemia) | GI50 (UACC-257 melanoma) | GI50 (UO-31 renal) | GI50 (NCI-H226 lung) | GI50 (ACHN renal) | GI50 (LOX IMVI melanoma)
1 | O=[N+]([O-])C(=C1c2ccccc2-c2ccccc21)[N+](=O)[O-] | > 100 µM | > 100 µM | > 100 µM | > 100 µM | > 100 µM | > 100 µM | > 100 µM | > 100 µM |  |  |  |  |  |  |  |  |  | 
2 | N/N=C1\C(=O)N(c2ccc(Cl)c(Cl)c2)C(=O)C1C(=O)Nc1ccc(Cl)c(Cl)c1 (stereo not drawn) |  | > 100 µM | > 100 µM | > 100 µM | 84 µM |  | > 100 µM | > 100 µM |  |  |  |  |  |  |  |  |  | 
3 | Cc1c(C(=O)Nc2ccc(Oc3ccnc4cc(OCC(C)(C)O)ccc34)c(F)c2)c(=O)n(-c2ccccc2)n1C |  | > 100 µM |  |  |  |  | > 100 µM |  | 8.86 µM | 2.79 µM | > 100 µM | 2.47 µM |  |  |  |  |  | 
4 | NNC(=O)C(=O)N/N=C1\CCCC1C(=O)CCC(=O)Nc1cccc(Cl)c1 (stereo not drawn) | > 100 µM | > 100 µM | > 100 µM | > 100 µM | > 100 µM | > 100 µM | > 100 µM | > 100 µM |  |  |  |  |  |  |  |  |  | 
5 | Nc1ncnc2c1ncn2C1(CO)OC(CO)C(O)C1O (stereo not drawn) | > 100 µM | > 100 µM | > 100 µM | > 100 µM |  | > 100 µM | > 100 µM | > 100 µM |  |  |  |  |  |  |  |  |  | 
6 | Cc1ccc(C)c(NC(=O)C(=O)C(C2C(C)CC(=O)C2CC(=O)O)[N+](=O)[O-])c1 (stereo not drawn) | > 100 µM | > 100 µM | > 100 µM | > 100 µM | > 100 µM | > 100 µM | > 100 µM | > 100 µM |  |  |  |  |  |  |  |  |  | 
7 | CCCOC(=O)C1C(c2ccc(OC)cc2)NC(c2ccc(OC)cc2)C(C(=O)OCCC)S1(=O)=O (stereo not drawn) |  | > 100 µM | > 100 µM | > 100 µM | > 100 µM | > 100 µM | > 100 µM | > 100 µM | > 100 µM |  |  | > 100 µM | > 100 µM | > 100 µM | > 100 µM | > 100 µM | > 100 µM | 
8 | Oc1ccc(Br)cc1C=Nc1ccc(Oc2ccc(N=Cc3cc(Br)ccc3O)cc2)cc1 | > 19.6 µM | > 19.6 µM | > 19.6 µM | > 19.6 µM | > 19.6 µM | > 19.6 µM | > 19.6 µM | > 19.6 µM |  |  |  |  |  |  |  |  |  | 
9 | COc1ccc(-c2cc(-c3ccco3)c(C#N)c(=O)n2C2OC(COC(C)=O)C(OC(C)=O)C(OC(C)=O)C2OC(C)=O)cc1 (stereo not drawn) | > 100 µM and 59.6 µM | > 100 µM and 34.7 µM | > 100 µM | > 100 µM | > 100 µM and 51.7 µM |  | > 100 µM and 52.5 µM | > 100 µM | > 100 µM and 16.1 µM |  |  | > 100 µM and 23.2 µM |  |  | 40.1 µM and 16.5 µM |  | > 100 µM and 31.1 µM | 59.4 µM and 14.1 µM
10 | CCOC(=O)C(c1ccsc1)P(=O)(OCC)OCC (stereo not drawn) | 19.3 µM | 45.4 µM | > 100 µM | 33.2 µM | 28.4 µM | 35.8 µM | 26.3 µM | 53 µM |  |  |  |  |  |  |  |  |  | 
11 | CC(C)CC1CC2C(=O)N(c3ccccc3)C(=O)C2c2[nH]c3ccccc3c21 (stereo not drawn) | > 87.8 µM | > 65 µM | > 58.7 µM | > 100 µM | 79.9 µM | 66.1 µM | > 100 µM | > 87.7 µM |  |  |  |  |  |  |  |  |  | 
12 | C=CCN=C1NC(=O)C(CC(=O)Nc2ccc([N+](=O)[O-])cc2[N+](=O)[O-])S1 (stereo not drawn) |  | > 100 µM | > 100 µM | > 100 µM | > 100 µM | > 100 µM | > 100 µM | > 100 µM |  |  |  |  |  |  |  |  |  | 
13 | COC(=O)N1C=CC2=C(C)C3Nc4ccccc4C3C(C)=C2C1 (stereo not drawn) | 20.1 µM | > 100 µM | 12.3 µM | 14.3 µM | 3.88 µM | 5.1 µM | 8.29 µM | 5.01 µM |  |  |  |  |  |  |  |  |  | 
14 | CC1(C)CCOC(Sc2ccccc2)C1 (stereo not drawn) | > 100 µM | > 100 µM | > 100 µM | > 100 µM | > 100 µM |  | > 100 µM | > 100 µM |  |  |  |  |  |  |  |  |  | 
15 | CCCCCCCCCCCCNC(=S)OCCCC | 35.8 µM | > 100 µM | 52.4 µM | > 100 µM | > 100 µM |  | > 100 µM | > 100 µM |  |  |  |  |  |  |  |  |  | 
16 | CC1Nc2ccccc2NC1C=C(C#N)C#N (stereo not drawn) | 25.5 µM | 30.3 µM | 24.6 µM |  | 28.3 µM | 36.9 µM | 25.7 µM | 32.7 µM |  |  |  |  |  |  |  |  |  | 
17 | CN1C=C(C(N)=O)Cc2ccsc21 |  | > 100 µM | > 100 µM | > 100 µM | > 100 µM | > 100 µM | > 100 µM | > 100 µM |  |  |  |  |  |  |  |  |  | 
18 | O=C1c2ccccc2C(=O)N1CCN(CCN1C(=O)c2ccccc2C1=O)Cc1ccccc1 | > 100 µM | > 100 µM | > 100 µM | > 100 µM | > 100 µM |  | > 100 µM | > 100 µM |  |  |  |  |  |  |  |  |  | 
